From US10954549B2, “Detection and classification of an anticoagulant using a clotting assay” (Haemonetics Corporation, priority 2014, dated 2021)

Columns and labels:
[1] = test system: citrated whole blood; test: RapidTEG (rTEG) test of blood spiked with anticoagulant; format: biochemical, human; settings: for TEG ACT parameter versus control group: all tested concentrations (except rivaroxaban 22 ng/mL)
Source text: (§1) The TEG clotting assay was used to determine if low, normal, and high doses of dabigatran, rivaroxaban, and apixaban could be detected in blood spiked with these compounds. Three oral anticoagulants (OAC), namely dabigatran, rivaroxaban, and apixaban, were spiked into blood obtained from 14 healthy volunteer human donors. For each OAC tested, citrated blood from three donors was spiked with three different concentrations of the active drug (i.e., the compound). The spiked blood samples and control samples spiked with diluent were tested with the TEG® 5000 Thrombelastograph® Hemostasis Analyzer (Haemonetics Corporation, Braintree, Mass., USA) using the Kaolin and RapidTEG® reagents (Haemonetics). Each sample was run in triplicate. All samples were tested with and without ecarin (purchased from Enzyme Research Laboratories, South Bend, IN). This study was IRB approved and all donors were over 18 and signed informed consent forms.
The RapidTEG (rTEG) test incorporated both tissue factor and kaolin to generate the conventional kaolin parameters as well as the TEG-ACT parameter, which is measured in seconds. The TEG-ACT is equivalent to the Activated Clotting Time (see Chavez J. J. et al., Anesth. Analg. 99:1290-1294, 2004) and has a normal range of 86 to 118 seconds. A prolonged TEG-ACT time indicates slower clot formation. In addition, velocity curves derived from the above mentioned kaolin and rTEG tests were plotted using TEG software. These curves represent the speed of clot propagation (MRTG, Maximum Rate of Thrombus Generation; and TMRTG, Time to Maximum Rate of Thrombus Generation) (see FIG. 3B).
For the RapidTEG (rTEG) test, the reagent was reconstituted with 20 μL diluent water, and allowed to stand for 5 minutes per manufacturer instructions. Ten μL of this reconstituted reagent was added to the TEG cup with 20 μl 0.2M CaCl2 for recalcification.
340 μL of the citrated blood sample was added to the cup with these two reagents, and the contents of the cup were mixed 3 times by drawing the contents of the cup up into the pipette and redispensing it into the cup. The test was started immediately after mixing and allowed to run until the MA parameter had defined. The rTEG with ecarin test was performed as the rTEG test above, using 20 μL of an ecarin/CaCl2 solution (0.16M CaCl2; 19EU/mL ecarin).

[2] = test system: citrated whole blood; test: TEG kaolin with ecarin test of spiked blood; format: biochemical, human; settings: for R value with ecarin versus reference range: Example 2, three dosage levels, kaolin reference range about 5 to about 10 minutes; for R time in the presence versus absence of ecarin: FIGS. 8A-8C; for MA values with ecarin relative to samples run without ecarin: kaolin test; for R, K and TMRTG values on addition of ecarin to the kaolin test / α and MRTG values on addition of ecarin to the kaolin test: treated and control groups
Source text: as §1
For the kaolin test, 1 mL of citrated blood sample was mixed with kaolin and 340 microliters (μL) of this blood was added to a TEG cup containing 20 μL of 0.2M CaCl2 for recalcification. The kaolin with ecarin test was performed in a similar fashion, using 20 μL of an ecarin/CaCl2 solution (0.16 M CaCl2; 19 EU/mL ecarin).
Ecarin is derived from the venom of the saw-scaled viper, Echis carinatus. Ecarin activates prothrombin (the precursor of thrombin—see FIG. 5). This activation of prothrombin by ecarin produces meizothrombin, a prothrombin-thrombin intermediate which has a low level of procoagulant enzymatic activity.
Healthy human volunteers (who are not being administered any anticoagulant), donated blood. Following donation, the blood collected from the donors (which was added to citrate to prevent clotting) was divided into portions, and portions of the blood were spiked with either nothing, dabigatran, or rivaroxaban. The portions were then assayed using thromboelastography, including assays performed in the presence of ecarin.

[3] = test system: blood from a single human volunteer; test: Detection time (R time with Factor Xa) in volunteer blood before and after oral anticoagulant; format: in vivo; settings: 2 hours 30 minutes after 20 mg oral
Procedure: (§2) Blood from a single human volunteer was analyzed using thromboelastography with Factor Xa and ecarin before and after the volunteer was orally administered an anticoagulant.
(§3) For these studies, the normal ranges for the particular reagent (i.e., Factor Xa or ecarin) were determined using multiple donors known not to be taking any anticoagulant.
(§4) The human volunteer was known not to be taking (i.e., was not being administered) an anticoagulant. In this example, blood was taken from the volunteer before the volunteer was administered any anticoagulant. This is the “before” blood component sample. The volunteer was orally administered 20 mg rivaroxaban, an anti-Factor Xa anticoagulant. Two hours and thirty minutes after oral administration of the rivaroxaban, blood was drawn again from the volunteer. This is the “after” blood component sample.
(§5) The “before” and “after” samples were analyzed using thromboelastography in the presence of Factor Xa or in the presence of ecarin. When the R time is determined in the presence of Factor Xa, that time is called the detection time. When the R time is determined in the presence of ecarin, that time is called the classification time.

[4] = test system: blood from a single human volunteer; test: Classification time (R time with ecarin) in volunteer blood before and after oral anticoagulant; format: in vivo; settings: 2 hours 30 minutes after 20 mg oral
Procedure: as §2, §3, §4, §5

[5] = cited from earlier work
[6] = test system: porcine plasma; test: TEG 6S DTI channel R-time, porcine experimental trauma model; format: in vivo; settings: pre and post trauma; baseline 3.4±0.6 min
Procedure: The TEG®6S system (Haemonetics Corp., Braintree, Mass.) is based on viscoelasticity measurements using resonance frequency and disposable multi-channel microfluidic cartridges. Blood and plasma from healthy volunteers were spiked with dabigatran in the therapeutic range (in increasing concentrations) and tested with an OAC cartridge with an ecarin based, direct thrombin inhibitor (DTI) channel. This channel was also evaluated with porcine plasma from an experimental trauma model (n=6) where dabigatran levels were measured with dilute TT (Hemoclot®). TEG 6s R-time (reaction time) was correlated to the drug levels.

O=C(NC[C@H]1CN(c2ccc(N3CCOCC3=O)cc2)C(=O)O1)c1ccc(Cl)s1 [rivaroxaban, Rivaroxaban]
K, α and MRTG parameters versus control or between studied concentrations [1]: did not show any statistical difference
TEG ACT parameter, distinguishing between concentrations [1]: good dose response curve
TMRTG parameter sensitivity to presence of drug [1]: sensitive to the presence
MA values versus control ([1]; all studied concentrations): did not change
TEG ACT parameter versus control group [1]: significantly different
ACT time versus non-spiked blood sample ([1]; medium and higher concentrations): significantly higher
R value with ecarin versus reference range [2]: dramatically shortened and all three dosage levels fall outside of the control reference range
R time in the presence versus absence of ecarin [2]: equivalent and significant shortening of R time
MA values with ecarin relative to samples run without ecarin [2]: did not change
R, K and TMRTG values on addition of ecarin to the kaolin test [2]: significant decrease
α and MRTG values on addition of ecarin to the kaolin test [2]: significant increase
"after" detection time (R time, FXa reagent) [3]: approximately 4.4 minutes
"after" detection time relative to the reference range R time of 1.5 minutes [3]: 2.93 times
R of "after" blood versus Ecarin reference range (approximately 4.1 minutes upper boundary) [4]: within the Ecarin reference range
half-lives compared ([5]; in vivo): shorter half-lives than dabigatran
Cmax ([5]; oral dose of 10 mg): 141 ng/mL

dabigatran
TEG ACT parameter, distinguishing between concentrations [1]: good dose response curve
TMRTG parameter sensitivity to presence of drug [1]: sensitive to the presence
K parameter versus control ([1]; 200 ng/mL and 50 ng/mL): statistically different from control
K parameter versus control ([1]; 500 ng/mL): not for the concentration of 500 ng/mL
α parameter versus control ([1]; 500 ng/mL and 50 ng/mL): statistically different from control
MA values versus control group ([1]; 500 ng/mL, still within normal range): significantly different from the control group
MRTG parameter sensitivity ([1]; 500, 200, 50 ng/mL): sensitive to the two lowest concentrations
TMRTG parameter between concentrations ([1]; 500 vs 200 ng/mL, 200 vs 50 ng/mL): able to differentiate between concentrations
K and α parameters, highest concentration versus other concentrations ([1]; 500 vs 200 ng/mL, 500 vs 50 ng/mL): able to differentiate
ACT time versus non-spiked blood sample ([1]; all concentrations): significantly higher
TEG ACT parameter versus control group [1]: significantly different
R, kaolin test with ecarin ([2]; 500, 200, 50 ng/mL): only a dose related decrease of the R
R value with ecarin versus reference range [2]: shortened and approaches the normal reference range
R time in the presence versus absence of ecarin [2]: concentration dependent decrease in R time
MA values with ecarin relative to samples run without ecarin [2]: did not change
R, K and TMRTG values on addition of ecarin to the kaolin test [2]: significant decrease
α and MRTG values on addition of ecarin to the kaolin test [2]: significant increase
R-time following administration [6]: ≥ 21 ± 5.9 min
maximum plasma concentration ([5]; 150 mg oral dose): 110 ng/mL
half-life ([5]; lengthened in patients with renal dysfunction): 12 to 17 h
